# Entries after “also recorded” stand apart in the source; their conditions may differ.
# Legend:
# [1] = tested on: innate immune activation marker genes; test: Gene expression in whole blood (Quantigeneplex); format: in vivo, human; conditions: 3 hr post-infusion vs. pre-dose, no premedications
# Excerpt: Whole blood was collected in PaxGene blood collection tubes (BD Biosciences) at various time points pre- and post-PGG administration. RNA was isolated and assayed by Quantigeneplex (Affymetrix) and the relative fold changes were log 2 transformed. Data presented are from subjects treated with PGG without premedications.
# [2] = tested on: intermediate monocytes; switched memory B cells and plasmablasts; test: Flow cytometry of PBMC for monocyte populations, activation markers and B cells; format: in vivo, human
# Method: Here, PBMC were stained with indicating markers and analyzed by flow cytometry. Each of the populations were assessed for expression of activation markers CD86, ICAM-1, HLA-DR and PD-L1 24 hours after infusion. In addition, approximately one week post-infusion, increased switched memory B cells and plasmablasts were detected (data not shown).
# [3] = Adverse events after a single dose of IV PGG without premedication; format: in vivo, human
# Method: (§1) IPD changes induced by yeast soluble β-glucan were evaluated in a Phase I healthy donor trial, which included three cohorts of 12 healthy human volunteers aged 18-65 years. In Cohort 1, subjects were administered a single dose of 4 mg/kg yeast soluble β-glucan by IV infusion over 2-3 hours. In Cohort 2, subjects were administered 4 mg/kg PGG by IV infusion over 2-3 hours once weekly for 3 weeks. Half of the subjects received premedications which included low dose corticosteroids (4 mg of dexamethasone, PO) and low-dose H1 antagonists (50 mg diphenhydramine.
# In Cohort 3, subjects received either 2 mg/kg PGG or 4 mg/kg PGG by IV infusion over 1-2 hours. The subjects were administered either dose of PGG once weekly for 2 weeks, then given a 2 week wash out (no PGG) and finally received one more dose of PGG (week 5). Adverse events and complete blood counts were evaluated. In addition, whole blood and serum was evaluated for the following at various time points post-infusion: PGG binding to immune cells (monocytes, neutrophils, B-cells, DC subsets), complement activation (C5a and Sc5b9), serum cytokine/chemokine levels, IgG ABA levels, flow cytometry of immune cells, circulating immune complex formation and Quantigene analysis of transcriptional profile. Table 1 lists each subject's pre-dose IgG ABA levels, PGG dose and whether they received premedications.
# Adverse events were evaluated for subjects after a single dose of IV PGG. Table 2 lists ABA levels and adverse events for subjects that had not received premedication prior to PGG infusion.
# [4] = tested on: anti-β-glucan antibody (ABA IgG, ABA IgM); test: Example 1: IgG and IgM ABA levels in a cancer subject on IVIG, IMPRIME PGG and pembrolizumab; format: in vivo, human; conditions: same subject and regimen
# Method: Soluble β-glucan immunotherapy was administered to a subject diagnosed with glucaganoma. The subject's ABA level prior to immunotherapy treatment placed them in the Low-ABA subgroup, and therefore, their ABA level was boosted by administration of IVIG. GAMMAGARD at 100 mg/ml was intravenously administered prior to each treatment, which provided 161 μg ABA/ml. […] Each cycle was 3 weeks.
# [5] = tested on: neutrophils, monocytes, B cells and subsets of dendritic cells (DC); test: In vivo immune cell binding by flow cytometry from whole blood at EOI; parameters: species or system human; conditions: High-ABA subjects, anti-PGG MAb staining
# Method: In vivo immune cell binding was assessed by flow cytometry from whole blood of subjects dosed with PGG at the EOI. Gates were set based on BFDPV staining (anti-PGG MAb) on blood cells prior to infusion.
# [6] = tested on: complement activation products, C5a and SC5b-9; test: Complement activation in plasma by ELISA after IV PGG; format: in vivo, human; conditions: healthy subjects, single dose PGG IV
# Method: as §1
# Subjects were stratified/classified into subgroups based on pre-infusion ABA levels. ABA cutoff levels were selected based on prior studies and are only exemplary. Classification may include only 2 subgroups based on an IgG ABA cutoff level of 15 μg/ml, 20 μg/ml, 25, μg/ml, 30 μg/ml, 35 μg/ml, 40 μg/ml, 45 μg/ml or 50 μg/ml. […] Serum and cellular IPD markers were analyzed pre-infusion, 15 minutes, 30 minutes and 1 hour post-infusion, end of infusion (EOI) and 1 hour, 2 hours, 3 hours, 4 hours, 24 hours, 48 hours and 168 hours after EOI.
# Levels of complement activity, measured by […] (Quidel) in plasma, were determined by measuring complement activation products, C5a and SC5b-9. Levels were measured week 1 pre-infusion, 15 minutes, 30 minutes and 1 hour post-infusion, EOL 1 hour EOI and week 2 pre-infusion. […]
substance,measurement,setting,value
"β(1,6)-[poly-(1,3)-D-glucopyranosyl]-poly-β(1,3)-D-glucopyranose [PGG]",expression of innate immune activation marker genes,[1],consistently increased in subjects with higher levels of ABA
same,appearance of intermediate monocytes and activation markers,"[2]; 24 hrs after EOI, High-ABA subjects","a population of intermediate monocytes expressing higher levels of the activation markers CD86, PD-L1 and HLA-DR was observed"
same,switched memory B cells and plasmablasts,"[2]; approximately one week post-infusion, data not shown",increased
same,adverse events vs ABA level,[3]; no premedication,more adverse events occurred as ABA levels increased
same,infusion reaction-related adverse events (CARPA),[3]; no premedication,"observed in some, but not all, subjects with ABA levels>20 ug/ml"
same,Adverse Events (CTCAE grade),"[3]; subject 002, pre-dose ABA 34.4, no premedication",None
same,Adverse Events (CTCAE grade),"[3]; subject 004, pre-dose ABA 39.7, no premedication",None
same,Adverse Events (CTCAE grade),"[3]; subject 006, pre-dose ABA 127, no premedication",Gr 1 chills; also recorded: Gr 2 nausea/emesis; also recorded: Gr 2 chest pressure
same,Adverse Events (CTCAE grade),"[3]; subject 010, pre-dose ABA 177.9, no premedication",Gr 1 back pain; also recorded: Gr 2 chest pressure; also recorded: Gr 2 nausea
same,Adverse Events (CTCAE grade),"[3]; subject 016, pre-dose ABA 27.6, no premedication",Gr 1 headache
same,Adverse Events (CTCAE grade),"[3]; subject 022, pre-dose ABA 87.8, no premedication",Gr 1 chest pressure; also recorded: Gr 1 light headedness; also recorded: Gr 1 abdominal cramping; also recorded: Gr 2 myalgia
same,Adverse Events (CTCAE grade),"[3]; subject 025, pre-dose ABA 9.9, no premedication",None
same,Adverse Events (CTCAE grade),"[3]; subject 034, pre-dose ABA 68.0, no premedication",Gr 1 chest pressure; also recorded: Gr 1 warm sensation; also recorded: Gr 1 light headedness; also recorded: Gr 1 nausea; also recorded: Gr 1 hand paresthesia; also recorded: Gr 2 chills; also recorded: Gr 3 headache
same,Adverse Events (CTCAE grade),"[3]; subject 037, pre-dose ABA 10.4, no premedication",None
same,Adverse Events (CTCAE grade),"[3]; subject 039, pre-dose ABA 13.6, no premedication",Gr 1 headache; also recorded: Gr 1 drowsiness
same,Adverse Events (CTCAE grade),"[3]; subject 043, pre-dose ABA 32.6, no premedication",Gr 2 headache
same,Adverse Events (CTCAE grade),"[3]; subject 047, pre-dose ABA 33.6, no premedication",None
same,Adverse Events (CTCAE grade),"[3]; subject 055, pre-dose ABA 56.2, no premedication",Gr 1 nausea; also recorded: Gr 1 flushing; also recorded: Gr 2 chest pressure; also recorded: Gr 2 dyspnea; also recorded: Gr 2 low back pain; also recorded: Gr 2 headache (delayed); also recorded: Gr 2 back pain (delayed); also recorded: Gr 2 neck/shoulder
same,Adverse Events (CTCAE grade),"[3]; subject 057, pre-dose ABA 37.3, no premedication",Gr 1 diarrhea
same,Adverse Events (CTCAE grade),"[3]; subject 058, pre-dose ABA 34.0, elevated pre-dose CIC, no premedication",Gr 1 dysuria (delayed); also recorded: Gr 2 myalgia (delayed); also recorded: Gr 2 arthralgia
same,Adverse Events (CTCAE grade),"[3]; subject 067, pre-dose ABA 15.0, no premedication",Gr 1 LE stiffness
same,Adverse Events (CTCAE grade),"[3]; subject 068, pre-dose ABA 26.1, no premedication",None
same,Adverse Events (CTCAE grade),"[3]; subject 070, pre-dose ABA 58.7, no premedication",Gr 1 headache
same,ABA IgG,"[4]; cycle 1, day 2 EOI IMPRIME",17.9 µg/mL
same,ABA IgM,"[4]; cycle 1, day 2 EOI IMPRIME",6.0 µg/mL
same,ABA IgG,"[4]; cycle 1, day 3",14.5 µg/mL
same,ABA IgM,"[4]; cycle 1, day 3",8.3 µg/mL
same,ABA IgG,"[4]; cycle 1, day 9",10.2 µg/mL
same,ABA IgM,"[4]; cycle 1, day 9",10.1 µg/mL
same,ABA IgG,"[4]; cycle 2, day 1 EOI-IMPRIME",50.4 µg/mL
same,ABA IgM,"[4]; cycle 2, day 1 EOI-IMPRIME",11.7 µg/mL
same,ABA IgG,"[4]; cycle 2, day 1 pre-IVIG",22.3 µg/mL
same,ABA IgM,"[4]; cycle 2, day 1 pre-IVIG",18.5 µg/mL
same,ABA IgG,"[4]; cycle 3, day 1 EOI-IMPRIME",57.4 µg/mL
same,ABA IgG,"[4]; cycle 3, day 1 pre-IVIG",21.9 µg/mL
same,in vivo immune cell binding,[5],"bound to neutrophils, monocytes, B cells and subsets of dendritic cells (DC)"
same,increase in complement activation (SC5b-9 levels),[6],correlated with ABA levels with levels peaking at EOI
